The source of these data is patent US4189426A, “Recombinant hormonal compositions and method” (Hoffmann-La Roche, Inc., priority 1978, dated 1980).

For assay [1] the following is noted: Birk and Li, Proc. Natl. Acad. Sci. U.S.A. 75(5), 2155 (1978); cited from earlier work.
The subject of a further assay is antiserum to prolactin. The assay can be described thus: gel double-diffusion technique of Ouchterlony. The assay is classed as binding. As to the method:
(§1) Exclusion chromatography of the purified fragments or the recombinant was performed on a Sephadex G-100 column (1.5×60 cm; V0 =35 ml) in 10 mM NH4 HCO3 (pH 8.4) at 21°. Circular dichroism (CD) spectra were obtained by a spectropolarimeter (Cary model 60) equipped with a circular dichroism attachment (model 6002). Microcomplement fixation was performed with the guinea pig antiserum to ovine prolactin. The gel double-diffusion technique of Ouchterlony was carried out with 1% agar in 10 mM phosphate buffer (pH 7.5). The prolactin activity was estimated by the local crop-sac assay in the pigeon.

The subject of another assay is pigeon crop-sac. The assay can be described thus: local crop-sac assay in the pigeon (prolactin / lactogenic activity). The assay is classed as in vivo. The following applies: Table 10, mean ± SEM, number of birds in parentheses. As to the method:
The growth-promoting activity of PL-HGH, the unpurified recombinant of Example 1 (fraction IV), [Cys(Cam)^53 -HGH-(1-134)], [Cys(Cam)^165, 182, 189 -HGH-(141-191)] and saline control were determined by the rat tibia test of Greenspan et al, Endocrinology 45, 455 (1949) and by the local crop-sac assay in the pigeon according to Lyons, Proc. Soc. Exp. Biol. 35, 645 (1937) and Nicoll, Endocrinology 80, 641 (1967). Amino acid compositions of acid and carboxypeptidase hydrolysates were determined in an automatic amino acid analyzer (model 120B, Beckman Instruments). For the analysis of tryptophan, the methanesulfonic acid hydrolysates were used. Amino-terminal residue and sequence analyses were preformed by the dansyl-Edman procedure. Isoelectric focusing was carried out in 8 M urea. Prolactin activity was estimated by the pigeon crop-sac assay. Microcomplement fixation experiments were performed with rabbit antisera to HCS. The gel-double-diffusion technique of Ouchterlony was done using 1% agar in 0.01 M phosphate buffer of pH 7.5. Exclusion chromatography of the purified fragments or the recombinant was performed on a Sephadex G-100 column (1.5×60 cm; V0 =35 ml) in 10 mM NH4 HCO3 (pH 8.4) at 21°. Circular dichroism (CD) spectra were obtained by a spectropolarimeter (Cary model 60) equipped with a circular dichroism attachment (model 6002). Microcomplement fixation was performed with the guinea pig antiserum to ovine prolactin. The gel double-diffusion technique of Ouchterlony was carried out with 1% agar in 10 mM phosphate buffer (pH 7.5). The prolactin activity was estimated by the local crop-sac assay in the pigeon.

The nature of assay [2]: conformational, immunological and biological activity of Example 8 and 9 recombinants compared with native hormone. Conditions: Examples 8 and 9, present tense, no data.
The test system of assay [3] is guinea pig antiserum to ovine prolactin. Put plainly: microcomplement fixation. The format is binding. The following applies: guinea pig antiserum to ovine prolactin at a dilution of 1:5000; 10 ng of the antigen. On the procedure: as §1

No end group written: not given here.

Turning to “PRL-(1-53): NH2-terminal portion, residues 1-53, of ovine prolactin from fibrinolysin digestion (TPVCPNGPGNCQVSLRDLFDRAVMVSHYIHNLSSEMFNEFDKRYAQGKGFITM; ends and bridges not checked; cysteine pairing not given here; UniProt P01240 31-83, looked up, fragment)”, in assay [1], the “biological activity, in words” value is “inactive”. In addition, the precipitin line result in the assay with antiserum to prolactin is given as “neither fragment gave a precipitin line”. In the assay with pigeon crop-sac (total dose 120 μg), the “Response (dry mucosal weight)” value is listed as 10.1 ± 2.6 mg.
Turning to “[Cys(Cam)^53 ]-HGH-(1-134)+(Lys^135,136,138, Glu^137,139, Nle^170, Ala^165,182,189)-HGH-(135-191)”, the “conformational, immunological and biological activity, in words” value in assay [2] was “analogous conformational, immunological and biological activity as native HGH”.

B1: Prolactin: prolactin isolated from sheep pituitary glands (protein, UniProt P01240 31-229, looked up)
Prolactin: TPVCPNGPGNCQVSLRDLFDRAVMVSHYIHNLSSEMFNEFDKRYAQGKGFITMALNSCHTSSLPTPEDKEQAQQTHHEVLMSLILGLLRSWNDPLYHLVTEVRGMKGVPDAILSRAIEIEEENKRLLEGMEMIFGQVIPGAKETEPYPVWSGLPSLQTKDEDARHSAFYNLLHCLRRDSSKIDTYLKLLNCRIIYNNNC
In the case of B1, the precipitin line result with antiserum to prolactin is “single precipitin line”. This molecule gave a complement fixed in assay [3] of 98%. In addition, the “Response (dry mucosal weight)” value in the assay on pigeon crop-sac (total dose 2 μg) is given as 20.5 ± 0.9 mg; with pigeon crop-sac (total dose 6 μg), 45.2 ± 3.1 mg.
